From US20020004220A1 (priority 1999, published 2002)
Converted amounts (≈) assume the structure as drawn.

Assays:
Escherichia coli = test: microbe, parasite or virus in culture; assay type: cell-based; conditions: read-out: MIC (MIC99)
Staphylococcus aureus = test: microbe, parasite or virus in culture; assay type: cell-based; conditions: read-out: MIC (MIC99)

Structure (SMILES)	MIC99 (Escherichia coli) [µg/mL]	MIC99 (Staphylococcus aureus) [µg/mL]
O=C(N[C@H](CO)[C@H](O)c1ccc([N+](=O)[O-])cc1)C(Cl)Cl [Chloramphenicol]	1.9 (≈ 5.88 µM)	1.9 (≈ 5.88 µM)
CCn1cc(C(=O)O)c(=O)c2cc(F)c(N3CCNCC3)cc21 [Norfloxacin]	0.045 (≈ 0.141 µM)	0.85 (≈ 2.66 µM)
CC1(C)S[C@@H]2[C@H](NC(=O)Cc3ccccc3)C(=O)N2[C@H]1C(=O)O [Penicillin]	3 (≈ 8.97 µM)	0.024 (≈ 0.0718 µM)
CO[C@H]1/C=C/O[C@@]2(C)Oc3c(C)c(O)c4c(O)c(c(/C=N/N5CCN(C)CC5)c(O)c4c3C2=O)NC(=O)/C(C)=C\C=C\[C@H](C)[C@H](O)[C@@H](C)[C@@H](O)[C@@H](C)[C@H](OC(C)=O)[C@@H]1C [Rifampicin]	5 (≈ 6.08 µM)	0.004 (≈ 0.00486 µM)
NC[C@H]1O[C@H](O[C@H]2[C@H](O)[C@@H](O[C@H]3O[C@H](CO)[C@@H](O)[C@H](N)[C@H]3O)[C@H](N)C[C@@H]2N)[C@H](N)C[C@@H]1O [Tobramycin]	1.2 (≈ 2.57 µM)	0.27 (≈ 0.578 µM)
CN[C@H](CC(C)C)C(=O)N[C@H]1C(=O)N[C@@H](CC(N)=O)C(=O)N[C@H]2C(=O)N[C@H]3C(=O)N[C@H](C(=O)N[C@H](C(=O)O)c4cc(O)cc(O)c4-c4cc3ccc4O)[C@H](O)c3ccc(c(Cl)c3)Oc3cc2cc(c3O[C@@H]2O[C@H](CO)[C@@H](O)[C@H](O)[C@H]2O[C@H]2C[C@](C)(N)[C@H](O)[C@H](C)O2)Oc2ccc(cc2Cl)[C@H]1O [Vancomycin]		0.65 (≈ 0.449 µM)
